In patent US8921362B2, “6,7-dialkoxy quinazoline derivatives and methods of treating drug resistant and other tumors” (Natco Pharma Limited, priority 2008, dated 2014):

Columns and labels:
Test in all cases: KinomeScan
Format in all cases: binding
Details in all cases: read-out: % Ctrl @ 10000 nM
VEGFR2 = biological target: T1, VEGFR2 (Homo sapiens, UniProt P35968)
T1 construct: host or cells: E. coli host derived from BL21, T7 phage
Method in brief: (§1)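 Competition binding of kinase-tagged T7 phage (BL21-derived E. coli lysates) to immobilized ligand on biotin-blocked beads; test compound diluted from 40× DMSO stocks, 2.5% DMSO in no-compound controls. Bound phage eluted and titer quantified by qPCR.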

PIK3C2B = biological target: T2, PIK3C2B (Homo sapiens, UniProt O00750)
T2 construct: host or cells: E. coli host derived from BL21, infected with T7 phage
Method in brief: as §1

FLT3(K663Q) = biological target: T3, FLT3(K663Q) (Homo sapiens, UniProt P36888, K663Q)
T3 construct: host or cells: T7 phage in E. coli host derived from BL21
Method in brief: as §1

CSNK1E = biological target: T4, CSNK1E (Homo sapiens, UniProt P49674)
T4 construct: host or cells: T7 phage in E. coli host derived from BL21
T4 sequence (P49674 whole entry): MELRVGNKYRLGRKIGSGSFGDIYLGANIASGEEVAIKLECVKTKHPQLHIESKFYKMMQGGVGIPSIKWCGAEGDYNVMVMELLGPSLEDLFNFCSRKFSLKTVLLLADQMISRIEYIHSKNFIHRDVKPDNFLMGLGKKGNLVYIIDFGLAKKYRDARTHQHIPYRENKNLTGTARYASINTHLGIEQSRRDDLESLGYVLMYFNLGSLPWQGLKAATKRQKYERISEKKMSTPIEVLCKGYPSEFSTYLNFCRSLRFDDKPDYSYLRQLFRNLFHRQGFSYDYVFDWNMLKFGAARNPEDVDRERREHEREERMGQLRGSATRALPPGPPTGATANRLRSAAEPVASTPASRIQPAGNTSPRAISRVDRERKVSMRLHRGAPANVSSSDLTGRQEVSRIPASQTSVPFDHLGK
Method in brief: as §1

TRKB = biological target: T5, TRKB (Homo sapiens, UniProt Q16620)
T5 construct: host or cells: E. coli host derived from BL21, T7 phage
Method in brief: as §1

PIK3CD = biological target: T6, PIK3CD (Homo sapiens, UniProt O00329)
T6 construct: host or cells: T7 phage in E. coli host derived from BL21
Method in brief: as §1

CDK3 = biological target: T7, CDK3 (Homo sapiens, UniProt Q00526)
T7 construct: host or cells: T7 phage in E. coli host derived from BL21
Method in brief: as §1

DMPK2 = biological target: T8, DMPK2 (Homo sapiens, UniProt Q6DT37)
T8 construct: purchased Ambit Biosciences Corp (KinomeScan); host or cells: T7 phage in E. coli host derived from BL21
T8 sequence (Q6DT37 whole entry): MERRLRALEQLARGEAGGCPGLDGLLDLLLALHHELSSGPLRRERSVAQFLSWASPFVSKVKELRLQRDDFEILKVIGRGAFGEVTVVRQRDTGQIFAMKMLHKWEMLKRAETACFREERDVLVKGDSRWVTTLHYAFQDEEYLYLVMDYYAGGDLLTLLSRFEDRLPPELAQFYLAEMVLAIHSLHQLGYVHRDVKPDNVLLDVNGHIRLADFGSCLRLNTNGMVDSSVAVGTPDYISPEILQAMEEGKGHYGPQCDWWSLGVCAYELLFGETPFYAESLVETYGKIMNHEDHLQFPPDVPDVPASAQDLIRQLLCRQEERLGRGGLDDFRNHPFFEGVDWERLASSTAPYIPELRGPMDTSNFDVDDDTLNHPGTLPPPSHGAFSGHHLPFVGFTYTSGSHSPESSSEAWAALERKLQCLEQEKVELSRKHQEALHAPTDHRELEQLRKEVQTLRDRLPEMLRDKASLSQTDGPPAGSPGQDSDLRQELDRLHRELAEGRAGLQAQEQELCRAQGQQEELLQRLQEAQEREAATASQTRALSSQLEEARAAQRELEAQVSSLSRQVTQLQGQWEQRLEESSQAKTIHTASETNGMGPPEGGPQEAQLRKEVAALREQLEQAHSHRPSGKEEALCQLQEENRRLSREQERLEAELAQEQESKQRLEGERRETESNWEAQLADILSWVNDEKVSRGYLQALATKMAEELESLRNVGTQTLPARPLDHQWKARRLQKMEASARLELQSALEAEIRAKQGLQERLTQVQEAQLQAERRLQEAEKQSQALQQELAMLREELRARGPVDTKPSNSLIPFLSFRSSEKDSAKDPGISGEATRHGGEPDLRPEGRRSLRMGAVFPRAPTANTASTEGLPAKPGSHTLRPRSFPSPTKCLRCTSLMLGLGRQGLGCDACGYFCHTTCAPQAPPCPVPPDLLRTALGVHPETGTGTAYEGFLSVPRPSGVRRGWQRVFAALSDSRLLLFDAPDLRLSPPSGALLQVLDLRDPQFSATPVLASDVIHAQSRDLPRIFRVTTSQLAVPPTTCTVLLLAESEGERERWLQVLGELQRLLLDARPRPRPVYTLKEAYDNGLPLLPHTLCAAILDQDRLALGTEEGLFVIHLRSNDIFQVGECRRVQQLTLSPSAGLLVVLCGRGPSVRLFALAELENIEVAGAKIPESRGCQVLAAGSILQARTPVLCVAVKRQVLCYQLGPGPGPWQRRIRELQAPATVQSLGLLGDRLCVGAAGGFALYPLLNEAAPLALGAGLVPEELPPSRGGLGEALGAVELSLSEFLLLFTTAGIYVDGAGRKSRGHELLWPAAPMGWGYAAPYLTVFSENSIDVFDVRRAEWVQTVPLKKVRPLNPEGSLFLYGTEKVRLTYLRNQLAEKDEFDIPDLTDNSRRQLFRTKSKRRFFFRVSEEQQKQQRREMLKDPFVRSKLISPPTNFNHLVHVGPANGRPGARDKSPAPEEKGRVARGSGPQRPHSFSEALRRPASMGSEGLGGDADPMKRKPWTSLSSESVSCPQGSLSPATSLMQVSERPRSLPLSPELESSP
Method in brief: as §1

[1] = biological target: T9, TYK2(JH1domain-catalytic) (Homo sapiens, UniProt P29597)
T9 construct: TYK2(JH1domain-catalytic); host or cells: E. coli host derived from BL21, T7 phage
Method in brief: as §1

CAMK2D = biological target: T10, CAMK2D (Homo sapiens, UniProt Q13557)
T10 construct: host or cells: E. coli host derived from BL21
Method in brief: as §1

CSF1R = biological target: T11, CSF1R (Homo sapiens, UniProt P07333)
T11 construct: host or cells: T7 phage in E. coli host derived from BL21
T11 sequence (P07333 20-972): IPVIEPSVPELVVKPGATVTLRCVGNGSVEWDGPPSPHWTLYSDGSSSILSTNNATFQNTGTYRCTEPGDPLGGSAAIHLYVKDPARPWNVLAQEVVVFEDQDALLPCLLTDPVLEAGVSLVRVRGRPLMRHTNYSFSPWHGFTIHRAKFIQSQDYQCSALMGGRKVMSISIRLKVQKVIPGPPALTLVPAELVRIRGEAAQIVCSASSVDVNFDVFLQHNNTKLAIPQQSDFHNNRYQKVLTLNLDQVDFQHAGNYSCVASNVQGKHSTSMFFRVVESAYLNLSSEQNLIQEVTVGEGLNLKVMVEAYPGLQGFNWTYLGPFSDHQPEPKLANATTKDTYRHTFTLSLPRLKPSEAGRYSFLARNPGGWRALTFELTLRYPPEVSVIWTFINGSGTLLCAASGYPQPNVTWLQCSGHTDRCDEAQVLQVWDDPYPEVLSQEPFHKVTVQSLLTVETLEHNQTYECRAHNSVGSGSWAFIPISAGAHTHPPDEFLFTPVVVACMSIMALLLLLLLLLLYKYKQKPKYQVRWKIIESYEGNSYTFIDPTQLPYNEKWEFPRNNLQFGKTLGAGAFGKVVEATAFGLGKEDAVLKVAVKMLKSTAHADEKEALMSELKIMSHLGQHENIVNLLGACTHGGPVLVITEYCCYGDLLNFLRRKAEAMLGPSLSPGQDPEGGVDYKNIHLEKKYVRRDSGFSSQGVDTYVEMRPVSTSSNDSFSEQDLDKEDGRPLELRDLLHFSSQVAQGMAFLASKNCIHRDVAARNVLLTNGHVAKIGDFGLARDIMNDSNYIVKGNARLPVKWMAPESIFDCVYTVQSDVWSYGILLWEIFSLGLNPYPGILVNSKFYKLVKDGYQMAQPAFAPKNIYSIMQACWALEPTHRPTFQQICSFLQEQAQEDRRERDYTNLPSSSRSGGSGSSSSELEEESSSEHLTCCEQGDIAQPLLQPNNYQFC
Method in brief: as §1

MLK2 = biological target: T12, MLK2 (Homo sapiens, UniProt Q02779)
T12 construct: host or cells: T7 phage grown in E. coli host derived from BL21
Method in brief: as §1

ABL1(M351T) = biological target: T13, ABL1(M351T) (Homo sapiens, UniProt P00519, M351T)
T13 construct: host or cells: E. coli (BL21-derived), T7 phage lysate
Method in brief: as §1

MAPKAPK5 = biological target: T14, MAPKAPK5 (Homo sapiens, UniProt Q8IW41)
T14 construct: host or cells: E. coli host derived from the BL21 strain, infected with T7 phage
Method in brief: as §1

PRKX = biological target: T15, PRKX (Homo sapiens, UniProt P51817)
T15 construct: host or cells: E. coli host derived from BL21, T7 phage display
Method in brief: as §1

MAP3K3 = biological target: T16, MAP3K3 (Homo sapiens, UniProt Q99759)
T16 construct: host or cells: E. coli host derived from the BL21 strain, infected with T7 phage
Method in brief: as §1

EGFR(S752-1759del) = biological target: T17, EGFR(S752-1759del) (Homo sapiens, UniProt P00533, DEL752-759)
T17 construct: purchased Ambit Biosciences Corp; host or cells: T7 phage in E. coli host derived from BL21
Method in brief: as §1

TNK1 = biological target: T18, TNK1 (Homo sapiens, UniProt Q13470)
T18 construct: host or cells: E. coli host derived from BL21, T7 phage
T18 sequence (Q13470 whole entry): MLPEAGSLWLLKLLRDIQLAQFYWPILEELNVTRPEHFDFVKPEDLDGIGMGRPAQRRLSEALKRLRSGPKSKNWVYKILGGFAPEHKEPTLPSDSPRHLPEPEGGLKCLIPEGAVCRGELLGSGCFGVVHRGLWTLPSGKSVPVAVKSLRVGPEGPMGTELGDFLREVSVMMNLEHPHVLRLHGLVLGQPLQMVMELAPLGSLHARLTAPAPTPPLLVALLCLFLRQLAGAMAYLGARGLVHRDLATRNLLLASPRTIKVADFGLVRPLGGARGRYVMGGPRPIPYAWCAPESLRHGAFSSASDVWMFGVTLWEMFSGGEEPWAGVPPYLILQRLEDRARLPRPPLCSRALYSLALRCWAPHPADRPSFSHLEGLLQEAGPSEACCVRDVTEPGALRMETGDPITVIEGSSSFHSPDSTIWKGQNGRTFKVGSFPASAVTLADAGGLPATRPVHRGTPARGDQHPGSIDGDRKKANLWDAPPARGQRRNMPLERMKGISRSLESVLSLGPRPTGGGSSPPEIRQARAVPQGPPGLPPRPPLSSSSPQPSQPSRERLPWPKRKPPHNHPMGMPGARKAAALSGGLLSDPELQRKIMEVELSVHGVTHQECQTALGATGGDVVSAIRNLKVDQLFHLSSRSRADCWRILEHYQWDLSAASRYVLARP
Method in brief: as §1

KIT(V559D, T670I) = biological target: T19, KIT(V559D, T670I) (Homo sapiens, UniProt P10721, T670I/V559D)
T19 construct: host or cells: T7 phage grown in E. coli host derived from BL21
T19 sequence (P10721 26-976 V559D/T670I): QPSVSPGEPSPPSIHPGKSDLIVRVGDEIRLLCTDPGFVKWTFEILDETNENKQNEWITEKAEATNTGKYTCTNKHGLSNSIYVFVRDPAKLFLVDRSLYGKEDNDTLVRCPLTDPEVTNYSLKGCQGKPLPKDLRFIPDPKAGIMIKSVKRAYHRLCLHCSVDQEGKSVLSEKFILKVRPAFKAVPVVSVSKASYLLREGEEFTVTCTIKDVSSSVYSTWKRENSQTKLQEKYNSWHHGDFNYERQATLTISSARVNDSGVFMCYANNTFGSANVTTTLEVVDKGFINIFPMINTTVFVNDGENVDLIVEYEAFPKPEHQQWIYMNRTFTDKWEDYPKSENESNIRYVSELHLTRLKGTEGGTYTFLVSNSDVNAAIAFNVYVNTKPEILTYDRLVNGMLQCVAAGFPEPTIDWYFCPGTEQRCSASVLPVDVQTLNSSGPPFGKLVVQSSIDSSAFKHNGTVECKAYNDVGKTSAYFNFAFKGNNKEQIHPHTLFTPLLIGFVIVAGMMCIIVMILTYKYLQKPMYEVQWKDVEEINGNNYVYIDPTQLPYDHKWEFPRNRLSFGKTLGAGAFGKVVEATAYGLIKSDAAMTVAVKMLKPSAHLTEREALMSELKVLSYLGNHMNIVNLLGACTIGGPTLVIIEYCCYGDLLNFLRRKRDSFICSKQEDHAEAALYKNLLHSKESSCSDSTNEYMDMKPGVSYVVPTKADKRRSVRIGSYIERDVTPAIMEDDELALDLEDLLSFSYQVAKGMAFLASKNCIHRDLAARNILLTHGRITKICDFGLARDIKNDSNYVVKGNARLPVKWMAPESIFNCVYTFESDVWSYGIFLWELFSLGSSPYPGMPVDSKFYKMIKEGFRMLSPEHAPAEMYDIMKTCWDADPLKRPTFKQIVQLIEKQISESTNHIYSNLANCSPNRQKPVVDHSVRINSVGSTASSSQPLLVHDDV
Method in brief: as §1

PCTK3 = biological target: T20, PCTK3 (Homo sapiens, UniProt Q07002)
T20 construct: host or cells: E. coli host derived from BL21, infected with T7 phage
Method in brief: as §1

ABL1(Y253F) = biological target: T21, ABL1(Y253F) (Homo sapiens, UniProt P00519, Y253F)
T21 construct: host or cells: E. coli (BL21-derived), T7 phage lysate
Method in brief: as §1

DDR1 = biological target: T22, DDR1 (Homo sapiens, UniProt Q08345)
T22 construct: purchased Ambit Biosciences Corp (KinomeScan); host or cells: T7 phage in E. coli host derived from BL21
Method in brief: as §1

CSNK1G3 = biological target: T23, CSNK1G3 (Homo sapiens, UniProt Q9Y6M4)
T23 construct: purchased Ambit Biosciences Corp (KinomeScan); host or cells: T7 phage in E. coli host derived from BL21
Method in brief: as §1

CDC2L1 = biological target: T24, CDC2L1 (Homo sapiens, UniProt P21127)
T24 construct: host or cells: T7 phage in E. coli host derived from BL21
Method in brief: as §1

LKB1 = biological target: T25, LKB1 (Homo sapiens, UniProt Q15831)
T25 construct: host or cells: E. coli host derived from the BL21 strain, infected with T7 phage
Method in brief: as §1

CAMK1 = biological target: T26, CAMK1 (Homo sapiens, UniProt Q14012)
T26 construct: host or cells: E. coli host derived from BL21
Method in brief: as §1

TLK2 = biological target: T27, TLK2 (Homo sapiens, UniProt Q86UE8)
T27 construct: host or cells: E. coli host derived from BL21, T7 phage
Method in brief: as §1

BMPR2 = biological target: T28, BMPR2 (Homo sapiens, UniProt Q13873)
T28 construct: host or cells: E. coli host derived from BL21
Method in brief: as §1

JNK3 = biological target: T29, JNK3 (Homo sapiens, UniProt P53779)
T29 construct: host or cells: T7 phage grown in E. coli host derived from BL21
Method in brief: as §1

MUSK = biological target: T30, MUSK (Homo sapiens, UniProt O15146)
T30 construct: host or cells: T7 phage grown in E. coli host derived from BL21
Method in brief: as §1

TGFBR2 = biological target: T31, TGFBR2 (Homo sapiens, UniProt P37173)
T31 construct: host or cells: T7 phage grown in E. coli (BL21-derived)
T31 sequence (P37173 23-567): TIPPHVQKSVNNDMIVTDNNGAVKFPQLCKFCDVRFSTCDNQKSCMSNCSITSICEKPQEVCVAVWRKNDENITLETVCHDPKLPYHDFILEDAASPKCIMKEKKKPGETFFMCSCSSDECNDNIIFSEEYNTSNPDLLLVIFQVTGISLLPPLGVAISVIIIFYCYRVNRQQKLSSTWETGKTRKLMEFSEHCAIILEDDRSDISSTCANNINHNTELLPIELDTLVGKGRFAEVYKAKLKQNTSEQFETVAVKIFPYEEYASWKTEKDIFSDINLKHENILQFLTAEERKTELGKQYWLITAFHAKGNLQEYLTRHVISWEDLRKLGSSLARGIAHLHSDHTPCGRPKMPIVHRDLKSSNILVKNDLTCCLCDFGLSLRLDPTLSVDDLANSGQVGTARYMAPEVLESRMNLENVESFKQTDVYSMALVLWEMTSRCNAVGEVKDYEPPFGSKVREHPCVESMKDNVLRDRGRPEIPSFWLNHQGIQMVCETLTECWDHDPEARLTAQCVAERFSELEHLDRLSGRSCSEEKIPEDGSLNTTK
Method in brief: as §1

ACVR2B = biological target: T32, ACVR2B (Homo sapiens, UniProt Q13705)
T32 construct: host or cells: E. coli (BL21-derived), T7 phage lysate
Method in brief: as §1

PCTK1 = biological target: T33, PCTK1 (Homo sapiens, UniProt Q00536)
T33 construct: host or cells: E. coli host derived from BL21, infected with T7 phage
Method in brief: as §1

SMILES: C#Cc1cccc(Nc2ncnc3cc(OC)c(OCCCN4CCOCC4)cc23)c1 [NRC-2694, N-(3-ethynylphenyl)-7-methoxy-6-[3-(4-morpholinyl)propoxy]-4-quinazolinamine]
- remaining binding at 10 µM (VEGFR2): 95%
- remaining binding at 10 µM (PIK3C2B): 93%
- remaining binding at 10 µM (FLT3(K663Q)): 56%
- remaining binding at 10 µM (CSNK1E): 9.6%
- remaining binding at 10 µM (TRKB): 73%
- remaining binding at 10 µM (PIK3CD): 89%
- remaining binding at 10 µM (CDK3): 91%
- remaining binding at 10 µM (DMPK2): 61%
- remaining binding at 10 µM [1]: 97%
- remaining binding at 10 µM (CAMK2D): 35%
- remaining binding at 10 µM (CSF1R): 50%
- remaining binding at 10 µM (MLK2): 83%
- remaining binding at 10 µM (ABL1(M351T)): 37%
- remaining binding at 10 µM (MAPKAPK5): 79%
- remaining binding at 10 µM (PRKX): 100%
- remaining binding at 10 µM (MAP3K3): 5.9%
- remaining binding at 10 µM (EGFR(S752-1759del)): 0%
- remaining binding at 10 µM (TNK1): 41%
- remaining binding at 10 µM (KIT(V559D, T670I)): 28%
- remaining binding at 10 µM (PCTK3): 82%
- remaining binding at 10 µM (ABL1(Y253F)): 23%
- remaining binding at 10 µM (DDR1): 39%
- remaining binding at 10 µM (CSNK1G3): 61%
- remaining binding at 10 µM (CDC2L1): 42%
- remaining binding at 10 µM (LKB1): 69%
- remaining binding at 10 µM (CAMK1): 65%
- remaining binding at 10 µM (TLK2): 82%
- remaining binding at 10 µM (BMPR2): 100%
- remaining binding at 10 µM (JNK3): 77%
- remaining binding at 10 µM (MUSK): 100%
- remaining binding at 10 µM (TGFBR2): 86%
- remaining binding at 10 µM (ACVR2B): 63%
- remaining binding at 10 µM (PCTK1): 100%
